The results in this text go back to US20090047368A1, “Polymeric polyphenol extracted from fermented tea, therapeutic agent for mitochondrial disease, preventive/therapeutic agent for diabetes mellitus, and food or beverage” (University Of Tsukuba, priority 2004, published 2009).

For the assay, the system named is B6 mice (C57BL). As to the kind of experiment: Blood glucose in B6 mice, high- versus low-molecular-weight polyphenols. Particulars: 0.27 mg/day intraperitoneal, 15 days. The assay is classed as in vivo. The protocol: The procedures for the experiment were similar to those employed in Example 7. In this experiment, B6 mice (C57BL; purchased from CLEA Japan, Inc.) were used. […] The low-molecular-weight polyphenol group was given a PBS solution of epicatechin daily through intraperitonal injection at a dose of 0.27 mg/day. Blood samples were collected on the first day of the administration and 15 days thereafter for the measurement of blood glucose levels. […] The horizontal axis in the figure represents the number of days from the start of the administration. The vertical axis represents percentage (%) changes in blood glucose based on the blood glucose level on the first day at 100.

With `Oc1cc(O)c2c(c1)O[C@H](c1ccc(O)c(O)c1)[C@H](O)C2` [low-molecular-weight polyphenols, epicatechin], the “decrease in blood glucose relative to the first day (100)” value is on record as “little change”.
